In patent US20240287194A1, “Targeting Extracellular Matrix Proteins to Regulate NK Cell Function in Peripheral Tissues” (The General Hospital Corporation, priority 2021, published 2024):

B1: elastin: Elastin (Mouse lung, Sigma), dermal ECM protein (protein, UniProt P54320 28-860, looked up)
Elastin: GGVPGAVPGGLPGGVPGGVYYPGAGIGGLGGGGGALGPGGKPPKPGAGLLGTFGAGPGGLGGAGPGAGLGAFPAGTFPGAGALVPGGAAGAAAAYKAAAKAGAGLGGVGGVPGGVGVGGVPGGVGVGGVPGGVGVGGVPGGVGGIGGIGGLGVSTGAVVPQVGAGIGAGGKPGKVPGVGLPGVYPGGVLPGTGARFPGVGVLPGVPTGTGVKAKAPGGGGAFAGIPGVGPFGGQQPGVPLGYPIKAPKLPGGYGLPYTNGKLPYGVAGAGGKAGYPTGTGVGSQAAAAAAKAAKYGAGGAGVLPGVGGGGIPGGAGAIPGIGGIAGAGTPAAAAAAKAAAKAAKYGAAGGLVPGGPGVRLPGAGIPGVGGIPGVGGIPGVGGPGIGGPGIVGGPGAVSPAAAAKAAAKAAKYGARGGVGIPTYGVGAGGFPGYGVGAGAGLGGASPAAAAAAAKAAKYGAGGAGALGGLVPGAVPGALPGAVPAVPGAGGVPGAGTPAAAAAAAAAKAAAKAGLGPGVGGVPGGVGVGGIPGGVGVGGVPGGVGPGGVTGIGAGPGGLGGAGSPAAAKSAAKAAAKAQYRAAAGLGAGVPGFGAGAGVPGFGAGAGVPGFGAGAGVPGFGAGAGVPGFGAGAVPGSLAASKAAKYGAAGGLGGPGGLGGPGGLGGPGGLGGAGVPGRVAGAAPPAAAAAAAKAAAKAAQYGLGGAGGLGAGGLGAGGLGAGGLGAGGLGAGGLGAGGLGAGGLGAGGGVSPAAAAKAAKYGAAGLGGVLGARPFPGGGVAARPGFGLSPIYPGGGAGGLGVGGKPPKPYGGALGALGYQGGGCFGKSCGRKRK

Key:
[1] = system: B2m^−/− B16-F10 melanoma cells; assay: Subcutaneous (S.C.) B2m−/− B16 melanoma model; format: in vivo, mice; settings: for proportions of tumor infiltrating Tregs, macrophages and MDSCs: B2m−/− B16 melanoma at the endpoint; for NK cell infiltration of the tumor parenchyma: B2m−/− B16 melanoma, day 3 post-S.C. injection; for T cell recruitment into the B2m−/− B16 tumors: CD3+ T cells, day 3 post S.C. injection; for IFNγ expression of tumor NK cells / PD-1 expression of tumor NK cells / granzyme B expression of tumor NK cells: NK cells from B2m−/− B16 melanoma, day 19-21 post-S.C. injection; for survival / B2m−/− melanoma growth in the skin: S.C. B2m−/− B16 in WT mice, losartan 60 mg/kg or DHB 40 mg/kg I.P. every day; for B2m−/− melanoma growth in the skin: control IgG vs anti-NK1.1
Method: All tumor experiments were performed in eight to twelve-week-old C57BL/6 female WT or Ncr1^iCre ROSA^mT-mG mice. For the S.C. tumor model, 2.5×10^5 B16-F10 WT or B2m^−/− cells were subcutaneously injected into the shaved flanks of mice. Tumor growth was measured every other day using a digital caliper starting from day seven. Tumor volume was calculated as follows: […]
To inhibit collagen deposition in and around the tumor, mice were administered with 60 mg/kg of Losartan Potassium (Fisher Scientific, catalog no. L02325G) or 40 mg/kg of 3,4-dihydroxybenzoic acid (DHB) (Sigma-Aldrich, catalog no. 37580) in 100 μL of sterile 1×PBS while the control mice were administered with the equivalent volume of sterile 1×PBS. These drugs were injected I.P. every day for the duration of the study starting the day of tumor inoculation.
For the collagenase/hyaluronidase experiment, 2.5×10^5 B16-F10 B2m^−/− cells were resuspended in 1×collagenase and hyaluronidase mix (Stemcell, catalog no. 07912) and were subcutaneously injected into the shaved flanks of mice. To deplete collagen within the tumor, mice were administered with 1×collagenase and hyaluronidase mix (Stemcell, catalog no. 07912) in 100 μL of sterile 1×PBS while control mice were administered with the equivalent volume of sterile 1×sPBS. These enzymes were injected via intratumoral (I.T.) route starting on the day of tumor inoculation (day 0), day 1, day 2, day 3, day 4 and then every other day (day 6, 8, 10, etc.) until the end of the study. Except for day 3 tumor harvest, mice were euthanized when a tumor reached 2 cm in diameter in accordance with IACUC protocols. For early time point tumor analysis, specific Ncr1^iCre, ROSA^mT-mG mice from PBS, Losartan and DHB group were euthanized on day 3 post tumor inoculation, the implanted tumor harvested and fixed in pre-chilled 95% ethanol overnight at 4° C. before subjecting them to subsequent processing.
Terminal subcutaneous tumors were excised with the skin and weighed before cutting in half. One half was placed in appropriate fixative while the other half was separated from the skin and chopped with scissors into ˜1 mm pieces. These were transferred to a 15 mL tube with 10 mL digest buffer (RPMI 1640 (Life Technologies, catalog no. 21870076), 200 U/mL Collagenase IV (Worthington Biochemical, Lakewood, NJ, USA)) and incubated for 2 hours at 37° C. with shaking. Following incubation, digested tumor was poured onto a […] strainer placed in a 50 mL tube. The 15 mL tube was rinsed with ˜3 mL of 1×PBS/2% FCS/5 mM EDTA and added to the digested sample. The tumor was mashed with a plunger through the […] strainer which was then rinsed ˜3 times with a small volume of 1×PBS/2% FCS/5 mM EDTA. The tumor-infiltrating CD45^+ immune cells were isolated by magnetic-based positive selection using CD45 microbeads (Miltenyi Biotec, catalog no. 130-052-301) according to the manufacturer's protocol. The stained cells were passed through the LS columns (Miltenyi Biotec, catalog no. 130-042-401) placed between magnets for isolation of immune cells. The isolated CD45^+ cells were centrifuged at 300 g for 5 minutes at 4° C. and resuspended in 2.4G2 blocking solution before flow cytometry staining.
Mice were I.P. injected with 500 μg/mouse of IgG isotype control (Southern Biotech, Birmingham, AL, USA, catalog no. 0107-01) or depleting anti-NK1.1 antibody (clone PK136, BioXcell, West Lebanon, NH, USA, catalog no. BE0036) two days before tumor cell injection and 250 μg/mouse every other day starting the day of the tumor cell injection. For depletion of NK or T cells (anti-CD4 antibody, clone GK1.5, BioXcell; anti-CD8a antibody, clone YTS 169.4, BioXcell) in a skin transplant setting, 500 μg/mouse of each depleting antibody were injected the day of the transplant and 250 μg at days indicated in FIG. S5E. […]

[2] = system: Ly49H^+ splenic cNK cells; assay: Splenic cNK cell co-culture with m157-MEF in the presence of ECM proteins (CD107a, IFNγ flow cytometry); format: cell-based, mice; settings: for altering NK cell functions (CD107a, IFNγ): co-culture with m157-MEF
Method: (§1) Single-cell suspensions from all samples were prepared by straining through a 70 μm filter. 2.4G2 supernatant treated cells were stained in 1×PBS/2% FCS/5 mM EDTA with the appropriate surface antibodies (Table 2) for 30 minutes at 4° C., washed and analyzed by flow cytometry. For intracellular staining, cells were fixed and permeabilized using True-Nuclear Transcription Buffer set (Biolegend, catalog no. 424401) according to the manufacturer's protocol then incubated with appropriate antibodies (Table 2) for 60 min at RT, washed and analyzed by flow cytometry. For in vitro signaling experiments, following the specified time points, cells were fixed with an equal volume of pre-warmed 1×aldehyde based fixation buffer (Biolegend, catalog no. 420801) for 20 min at RT. Fixed cells were permeabilized by drop-wise addition of chilled methanol-based solution True-Phos Perm Buffer (Biolegend, catalog no. 425401) while mixed on a vortex. Cells were stored in-20° C. and dark for 1-3 days before washing them two times with ˜3 mL of 1×PBS/2% FCS/5 mM EDTA. Cells were subsequently stained with appropriate antibodies against surface markers and specific phosphorylated signaling proteins (Table 2) for 60 min at RT, washed and analyzed by flow cytometry. Cells were assayed on a BD LSRFortessa X-20 flow cytometer (BD Bioscience, Billerica, MA, USA) and data were analyzed using FlowJo software Version 10 (Tree Star, Ashlad, OR, USA). NK cells in WT non-reporting mice were identified as CD3^− NK1.1^+NKp46^+.
(§2) For in vitro experiments in the presence of ECM components, Collagen I (Rat tail, Sigma, catalog no. 08-115), collagen III (Human placenta, Sigma, catalog no. C4407), collagen IV (Mouse, Sigma, catalog no. C0543), Elastin (Mouse lung, Sigma, catalog no. E6402), Laminin (Mouse, Thermo Fisher, catalog no. 23017015) and Fibronectin (Rat plasma, Sigma, catalog no. F0635) were diluted in 1×PBS and coated at 20 μ ENREF 45 g/cm^2 in a 24 well tissue culture plate for 30 minutes at RT with gentle shaking followed by overnight at 4° C. Spleens from Ncr1^iCre, ROSA^mT-mG, WT or Lair1^−/− mice were harvested as described above. Then, 5×10^6 splenocytes resuspended in RPMI 10% FBS/1% P/S/20 mM Glutamine were mixed with 20 μg of respective ECM protein per well and were incubated at RT for 10 minutes. Splenocytes and ECM mix were plated onto the ECM-coated well and were incubated at 37° C./5% CO2 for 2 hours (short ECM exposure) or 17 hours (long ECM exposure). At the end of the incubation, 1×10^5 MEF (WT or m157) cells were added to each well to obtain a 50:1 splenocyte:MEF ratio. For cell signaling experiments, hydrogen peroxide (H2O2) at a final concentration of 2.5 mM or 1×10^5 MEF-m157 cells were added to each well except in “0 min” wells which were unstimulated and fixed immediately. Splenocytes were stimulated with 2.5 mM H2O2 for 2 min and 5 min or were co-cultured with MEF-m157 for 30 min and 60 min (signaling) or 7 hours (CD107a and IFN[…]) at 37° C./5% CO2. Splenocytes and MEF in co-culture were supplemented with mIL-12 (10 ng/mL, Biolegend, catalog no. 577002), mIL-15 (1 ng/mL, Shenandoah Biotechnology, catalog no. 200-07) and hIL-2 (Biolegend, catalog no. 589104; only long ECM exposure) as well as for CD107a/IFN experiments. 1 μL of anti-CD107a-BV421 (1D4B, Biolegend, catalog no. 121618), 1×Brefeldin A (Biolegend, catalog no. 420601) and 1×Monensin (Biolegend, catalog no. 420701) were added. Following the co-culture, cells were washed with 1×PBS/2% FCS/5 mM EDTA and the pellet was resuspended in 2.4G2 blocking solution before flow cytometry staining.

splenic cNK cells = assay: Phospho-signaling in splenic cNK cells stimulated with H2O2 in the presence of ECM proteins; format: cell-based, mice
Method: as §1, §2

Row | Molecule | proportions of tumor infiltrating Tregs, macrophages and MDSCs [1] | NK cell infiltration of the tumor parenchyma [1] | T cell recruitment into the B2m−/− B16 tumors [1] | IFNγ expression of tumor NK cells [1] | PD-1 expression of tumor NK cells [1] | granzyme B expression of tumor NK cells [1] | survival [1] | B2m−/− melanoma growth in the skin [1] | altering NK cell functions (CD107a, IFNγ) ([2]; 9 and 24 hours) | further results
1 | CCCCc1nc(Cl)c(CO)n1Cc1ccc(-c2ccccc2-c2nn[nH]n2)cc1 [losartan, Losartan Potassium] | remained unaltered or increased | highly infiltrated the tumor parenchyma | did not induce T cell recruitment | markedly elevated expression | markedly elevated expression | markedly elevated expression | significant survival benefit | protected the mice from B2m^−/− melanoma growth in the skin in an NK cell-dependent manner | – | –
2 | O=C(O)c1ccc(O)c(O)c1 [DHB, 3,4-dihydroxybenzoic acid] | remained unaltered or increased | highly infiltrated the tumor parenchyma | did not induce T cell recruitment | markedly elevated expression | markedly elevated expression | markedly elevated expression | significant survival benefit | protected the mice from B2m^−/− melanoma growth in the skin in an NK cell-dependent manner | – | –
3 | collagen IV: collagen IV (Mouse, Sigma), epidermal basement membrane protein | – | – | – | – | – | – | – | – | played a minor role | –
4 | laminin: Laminin (Mouse, Thermo Fisher), epidermal basement membrane protein | – | – | – | – | – | – | – | – | played a minor role | –
5 | fibronectin: Fibronectin (Rat plasma, Sigma), epidermal basement membrane protein | – | – | – | – | – | – | – | – | played a minor role | –
6 | B1 | – | – | – | – | – | – | – | – | – | Ly49H+ cNK cell degranulation (CD107a) ([2]; 9 and 24 hours co-culture with m157-MEF, ECM coated 20 μg/cm2): potently blocked; IFNγ production by Ly49H+ cNK cells ([2]; exposed to m157-MEF, 9 and 24 hours): suppressed; pERK1/2 levels in NK cells (splenic cNK cells; H2O2 2.5 mM, 2 and 5 min): markedly reduced; pPLCγ1 levels in NK cells (splenic cNK cells; H2O2 2.5 mM, 2 and 5 min): markedly reduced; pSTAT3 in NK cells (splenic cNK cells; baseline and 2- and 5-minute exposure to H2O2): increased pSTAT3 at baseline; pSTAT5 in NK cells (splenic cNK cells; baseline and 2- and 5-minutes exposure to H2O2): highly induced
